# Test system: MV-4-11 cells
# Experiment: Gene expression microarray analysis (Affymetrix PrimeView) and GSEA
# Type: cell-based, human
# Design: RFU PODN (11730768_x_at) / Fold change /veh PODN (11730768_x_at) / RFU LINC00158 (11744669_a_at) / Fold change /veh LINC00158 (11744669_a_at) / RFU DUSP10 (11751237_a_at) / Fold change /veh DUSP10 (11751237_a_at) / RFU ID3 (11757404_x_at) / Fold change /veh ID3 (11757404_x_at) / RFU PLEKHG5 (11737974_s_at) / Fold change /veh PLEKHG5 (11737974_s_at) / RFU LRRC4B (11730491_at) / Fold change /veh LRRC4B (11730491_at) / RFU GIMAP4 (11747438_a_at) / Fold change /veh GIMAP4 (11747438_a_at) / RFU KRT8 (11758183_x_at) / Fold change /veh KRT8 (11758183_x_at) / RFU CNN1 (11734310_a_at) / Fold change /veh CNN1 (11734310_a_at) / RFU VPS37D (11726825_at) / Fold change /veh VPS37D (11726825_at) / RFU C10orf10 (11716522_x_at) / Fold change /veh C10orf10 (11716522_x_at) / RFU KIR2DL2 /// KIR2DL4 /// KIR2DL5A /// KIR2DL5B /// KIR2DS1 /// KIR2DS2 /// KIR2DS3 /// KIR2DS4 /// KIR3DL3 /// KIR3DL3 /// KIR3DS1 (11738374_at) / Fold change /veh KIR2DL2 /// KIR2DL4 /// KIR2DL5A /// KIR2DL5B /// KIR2DS1 /// KIR2DS2 /// KIR2DS3 /// KIR2DS4 /// KIR3DL3 /// KIR3DL3 /// KIR3DS1 (11738374_at) / RFU C1QL1 (11718748_at) / Fold change /veh C1QL1 (11718748_at) / RFU TMPRSS4 (11747572_a_at) / Fold change /veh TMPRSS4 (11747572_a_at) / RFU HAMP (11756126_x_at) / Fold change /veh HAMP (11756126_x_at) / RFU RNFT2 (11725882_a_at) / Fold change /veh RNFT2 (11725882_a_at) / RFU NR4A2 (11747474_a_at) / Fold change /veh NR4A2 (11747474_a_at) / RFU ABCC12 (11746883_a_at) / Fold change /veh ABCC12 (11746883_a_at) / RFU TMEM136 (11760407_x_at) / Fold change /veh TMEM136 (11760407_x_at) / RFU CLDN22 /// WWC2 (11732394_at) / Fold change /veh CLDN22 /// WWC2 (11732394_at) / RFU HLA-DPB1 (11760878_x_at) / Fold change /veh HLA-DPB1 (11760878_x_at) / RFU SPINT1 (11716480_a_at) / Fold change /veh SPINT1 (11716480_a_at) / RFU GAP43 (11754022_s_at) / Fold change /veh GAP43 (11754022_s_at) / RFU A4GNT (11735810_at) / Fold change /veh A4GNT (11735810_at) / RFU PRB3 (11715151_x_at) / Fold change /veh PRB3 (11715151_x_at) / RFU TUBB4B (11761932_at) / Fold change /veh TUBB4B (11761932_at) / RFU CAPN14 (11732068_a_at) / Fold change /veh CAPN14 (11732068_a_at) / RFU TMCC2 (11721928_a_at) / Fold change /veh TMCC2 (11721928_a_at) / RFU IRGQ (11745062_a_at) / Fold change /veh IRGQ (11745062_a_at) / RFU FAM174B (11720279_a_at) / Fold change /veh FAM174B (11720279_a_at) / RFU TMPRSS4 (11748680_a_at) / Fold change /veh TMPRSS4 (11748680_a_at) / RFU FAM212B (11763350_a_at) / Fold change /veh FAM212B (11763350_a_at) / RFU PLEKHG5 (11743358_a_at) / Fold change /veh PLEKHG5 (11743358_a_at) / RFU ZSCAN30 (11745921_a_at) / Fold change /veh ZSCAN30 (11745921_a_at) / RFU CMKLR1 (11741424_a_at) / Fold change /veh CMKLR1 (11741424_a_at) / RFU LOC101060620 /// MAPK8IP1 (11723275_at) / Fold change /veh LOC101060620 /// MAPK8IP1 (11723275_at) / RFU SPTSSB (11747773_x_at) / Fold change /veh SPTSSB (11747773_x_at) / RFU PRSS12 (11739890_at) / Fold change /veh PRSS12 (11739890_at) / RFU BIN1 (11741810_x_at) / Fold change /veh BIN1 (11741810_x_at) / RFU WNT11 (11732464_a_at) / Fold change /veh WNT11 (11732464_a_at) / RFU C10orf10 (11716521_a_at) / Fold change /veh C10orf10 (11716521_a_at) / RFU C5orf56 (11738089_at) / Fold change /veh C5orf56 (11738089_at) / RFU CYB561 (11721691_x_at) / Fold change /veh CYB561 (11721691_x_at) / RFU ANKRD19P (11752326_a_at) / Fold change /veh ANKRD19P (11752326_a_at) / RFU OR2T12 /// OR2T33 /// OR2T8 (11738714_s_at) / Fold change /veh OR2T12 /// OR2T33 /// OR2T8 (11738714_s_at) / RFU VCAN (11748164_a_at) / Fold change /veh VCAN (11748164_a_at) / RFU JSRP1 (11732532_at) / Fold change /veh JSRP1 (11732532_at) / RFU KRTAP10-11 (11738290_x_at) / Fold change /veh KRTAP10-11 (11738290_x_at) / RFU MYO3A (11730013_a_at) / Fold change /veh MYO3A (11730013_a_at) / RFU EBF3 (11725865_a_at) / Fold change /veh EBF3 (11725865_a_at) / RFU CAMK2N1 (11719241_x_at) / Fold change /veh CAMK2N1 (11719241_x_at) / RFU C5orf56 (11738088_a_at) / Fold change /veh C5orf56 (11738088_a_at) / RFU OLFML3 (11715873_a_at) / Fold change /veh OLFML3 (11715873_a_at) / RFU LOC100653217 /// NTM (11731650_a_at) / Fold change /veh LOC100653217 /// NTM (11731650_a_at) / RFU MAPK11 (11762145_a_at) / Fold change /veh MAPK11 (11762145_a_at) / RFU FIZ1 (11724087_x_at) / Fold change /veh FIZ1 (11724087_x_at) / RFU OASL (11726364_x_at) / Fold change /veh OASL (11726364_x_at) / RFU SOX15 (11748057_x_at) / Fold change /veh SOX15 (11748057_x_at) / RFU CD79A (11719716_a_at) / Fold change /veh CD79A (11719716_a_at) / RFU HIST1H1D (11736915_at) / Fold change /veh HIST1H1D (11736915_at) / RFU CASKIN2 (11723855_a_at) / Fold change /veh CASKIN2 (11723855_a_at) / RFU LOC730098 (11760151_x_at) / Fold change /veh LOC730098 (11760151_x_at) / RFU OR4N2 (11742367_at) / Fold change /veh OR4N2 (11742367_at) / RFU PRRT2 (11749266_a_at) / Fold change /veh PRRT2 (11749266_a_at) / RFU SNX32 (11753110_a_at) / Fold change /veh SNX32 (11753110_a_at) / RFU CDHR5 (11726645_a_at) / Fold change /veh CDHR5 (11726645_a_at) / RFU RCAN1 (11760418_a_at) / Fold change /veh RCAN1 (11760418_a_at) / RFU FAM167A (11723789_a_at) / Fold change /veh FAM167A (11723789_a_at) / RFU FAM26E (11764081_at) / Fold change /veh FAM26E (11764081_at) / RFU ISYNA1 (11749810_s_at) / Fold change /veh ISYNA1 (11749810_s_at) / RFU ACY1 (11761880_at) / Fold change /veh ACY1 (11761880_at) / RFU 11764098_at / Fold change /veh 11764098_at / RFU SAMD14 (11745864_x_at) / Fold change /veh SAMD14 (11745864_x_at) / RFU NPB (11741838_a_at) / Fold change /veh NPB (11741838_a_at) / RFU TMPRSS6 (11731388_a_at) / Fold change /veh TMPRSS6 (11731388_a_at) / RFU KRTAP10-2 (11738614_at) / Fold change /veh KRTAP10-2 (11738614_at) / RFU ARHGAP8 /// PRR5-ARHGAP8 (11727945_x_at) / Fold change /veh ARHGAP8 /// PRR5-ARHGAP8 (11727945_x_at) / RFU KRTAP5-7 /// NADSYN1 (11734609_at) / Fold change /veh KRTAP5-7 /// NADSYN1 (11734609_at) / RFU RASL12 (11751679_a_at) / Fold change /veh RASL12 (11751679_a_at) / RFU CDKN2B (11736163_a_at) / Fold change /veh CDKN2B (11736163_a_at) / RFU PRF1 (11729649_at) / Fold change /veh PRF1 (11729649_at) / RFU, ZNF638 /// ZNF638-IT1 / Fold change vs veh, ZNF638 /// ZNF638-IT1 / RFU, PANK3 / Fold change vs veh, PANK3 / RFU, SH3YL1 / Fold change vs veh, SH3YL1 / RFU, ZEB2 / Fold change vs veh, ZEB2 / RFU, NRIP1 / Fold change vs veh, NRIP1 / RFU, PTTG1IP / Fold change vs veh, PTTG1IP / RFU, CAPN2 / Fold change vs veh, CAPN2 / RFU, MED14 / Fold change vs veh, MED14 / RFU, SNORA58 / Fold change vs veh, SNORA58 / RFU, C1orf63 / Fold change vs veh, C1orf63 / RFU, LRRFIP1 / Fold change vs veh, LRRFIP1 / RFU, NDUFAF7 / Fold change vs veh, NDUFAF7 / RFU, SLC12A2 / Fold change vs veh, SLC12A2 / RFU, IBTK / Fold change vs veh, IBTK / RFU, ESF1 / Fold change vs veh, ESF1 / Fold change vs veh, TMEM50B / RFU, TAOK1 / Fold change vs veh, TAOK1 / RFU, ACBD3 / Fold change vs veh, ACBD3 / RFU, TMA16 / Fold change vs veh, TMA16 / RFU, RWDD3 / Fold change vs veh, RWDD3 / RFU, BCAT1 / Fold change vs veh, BCAT1 / RFU, EDEM3 / Fold change vs veh, EDEM3 / RFU, TMEM33 / Fold change vs veh, TMEM33 / RFU, WDR75 / Fold change vs veh, WDR75 / RFU, AHCTF1 / Fold change vs veh, AHCTF1 / RFU, TFRC / Fold change vs veh, TFRC / RFU, ZDHHC17 / Fold change vs veh, ZDHHC17 / RFU, NOM1 / Fold change vs veh, NOM1 / RFU, ARL8B / Fold change vs veh, ARL8B / RFU, ZBTB11 / Fold change vs veh, ZBTB11 / RFU, TAMM41 / Fold change vs veh, TAMM41 / RFU, KIAA1704 /// LOC100996395 / Fold change vs veh, KIAA1704 /// LOC100996395 / RFU, ING1 / Fold change vs veh, ING1 / RFU, TRMT61B / Fold change vs veh, TRMT61B / RFU, FUBP3 / Fold change vs veh, FUBP3 / RFU, TP53 / Fold change vs veh, TP53 / RFU, TNKS2 / Fold change vs veh, TNKS2 / RFU, ZFP14 / Fold change vs veh, ZFP14 / RFU, ACTR2 / Fold change vs veh, ACTR2 / RFU, PPP3R1 / Fold change vs veh, PPP3R1 / RFU, PIK3R1 / Fold change vs veh, PIK3R1 / RFU, HNRNPA1 / Fold change vs veh, HNRNPA1 / RFU, RNF170 / Fold change vs veh, RNF170 / RFU, ZNF28 / Fold change vs veh, ZNF28 / RFU, RNGTT / Fold change vs veh, RNGTT / RFU, OGT / Fold change vs veh, OGT / RFU, BRD1 / Fold change vs veh, BRD1 / RFU, MARS / Fold change vs veh, MARS / RFU, ZNF655 / Fold change vs veh, ZNF655 / RFU, FAHD1 / Fold change vs veh, FAHD1 / RFU, BDP1 / Fold change vs veh, BDP1 / RFU, LRRCC1 / Fold change vs veh, LRRCC1 / RFU, ARID1A / Fold change vs veh, ARID1A / RFU, ZNF146 / Fold change vs veh, ZNF146 / RFU, ZNF330 / Fold change vs veh, ZNF330 / RFU, GPN3 / Fold change vs veh, GPN3 / RFU, C9orf123 / Fold change vs veh, C9orf123 / RFU, N4BP2L2 / Fold change vs veh, N4BP2L2 / RFU, ARFIP1 / Fold change vs veh, ARFIP1 / RFU, FAM179B / Fold change vs veh, FAM179B / RFU, BCL10 / Fold change vs veh, BCL10 / RFU, UHRF1BP1L / Fold change vs veh, UHRF1BP1L / RFU, BET1 / Fold change vs veh, BET1 / RFU, CNOT2 / Fold change vs veh, CNOT2 / RFU, ZNF268 / Fold change vs veh, ZNF268 / Fold change vs veh, ZNF507 / RFU, DGCR2 / Fold change vs veh, DGCR2 / RFU, WDSUB1 / Fold change vs veh, WDSUB1 / Fold change vs veh, HSP90B1 /// MIR3652 / RFU, ADSS / Fold change vs veh, ADSS / RFU, GK / Fold change vs veh, GK / RFU, ZNF148 / Fold change vs veh, ZNF148 / RFU, TAF9 / Fold change vs veh, TAF9 / RFU, SLC1A5 / Fold change vs veh, SLC1A5 / RFU, SLMO2 / Fold change vs veh, SLMO2 / RFU, ABCC4 / Fold change vs veh, ABCC4 / RFU, LOC101060439 /// RAP1B / Fold change vs veh, LOC101060439 /// RAP1B / RFU, RFX7 / Fold change vs veh, RFX7 / RFU, GTPBP10 / Fold change vs veh, GTPBP10 / RFU, CNEP1R1 / Fold change vs veh, CNEP1R1 / RFU, BIVM-ERCC5 /// ERCC5 / Fold change vs veh, BIVM-ERCC5 /// ERCC5 / RFU, ILF3 / Fold change vs veh, ILF3 / RFU 11762660_at / Fold change /veh 11762660_at / RFU VCAN (11757783_s_at) / Fold change /veh VCAN (11757783_s_at) / RFU DDX43 (11728927_at) / Fold change /veh DDX43 (11728927_at) / RFU KRT8 (11758188_x_at) / Fold change /veh KRT8 (11758188_x_at) / RFU NKD1 (11759106_at) / Fold change /veh NKD1 (11759106_at) / RFU SRD5A1 (11742802_a_at) / Fold change /veh SRD5A1 (11742802_a_at) / RFU TPSAB1 /// TPSB2 (11721975_s_at) / Fold change /veh TPSAB1 /// TPSB2 (11721975_s_at) / RFU GSTM3 (11746129_a_at) / Fold change /veh GSTM3 (11746129_a_at) / RFU IL23R (11737362_x_at) / Fold change /veh IL23R (11737362_x_at) / RFU TMEM51 (11727254_a_at) / Fold change /veh TMEM51 (11727254_a_at) / RFU PIWIL2 (11732686_x_at) / Fold change /veh PIWIL2 (11732686_x_at) / RFU ORM1 (11744905_x_at) / Fold change /veh ORM1 (11744905_x_at) / RFU CCDC152 (11743942_at) / Fold change /veh CCDC152 (11743942_at) / RFU ECM1 (11717891_a_at) / Fold change /veh ECM1 (11717891_a_at) / RFU IL23R (11748794_a_at) / Fold change /veh IL23R (11748794_a_at) / RFU TNFAIP8L3 (11732012_x_at) / Fold change /veh TNFAIP8L3 (11732012_x_at) / RFU MBOAT4 (11741988_at) / Fold change /veh MBOAT4 (11741988_at) / RFU 11764193_at / Fold change /veh 11764193_at / RFU TMEM53 (11763286_at) / Fold change /veh TMEM53 (11763286_at) / RFU MAGEB2 (11727129_at) / Fold change /veh MAGEB2 (11727129_at) / RFU TMEM200A (11744735_a_at) / Fold change /veh TMEM200A (11744735_a_at) / RFU CCDC152 (11751479_a_at) / Fold change /veh CCDC152 (11751479_a_at) / RFU FAM211A (11726209_a_at) / Fold change /veh FAM211A (11726209_a_at) / RFU RGS16 (11746705_a_at) / Fold change /veh RGS16 (11746705_a_at) / RFU VCAN (11755009_s_at) / Fold change /veh VCAN (11755009_s_at) / RFU RHOB (11743442_s_at) / Fold change /veh RHOB (11743442_s_at) / RFU RGS16 (11720943_a_at) / Fold change /veh RGS16 (11720943_a_at) / RFU RGS16 (11720944_at) / Fold change /veh RGS16 (11720944_at) / RFU, VPS4B / Fold change vs veh, VPS4B / RFU, CREB1 / Fold change vs veh, CREB1 / RFU, DNAJC13 / Fold change vs veh, DNAJC13 / RFU, GNAQ / Fold change vs veh, GNAQ / RFU, CDK5R1 / Fold change vs veh, CDK5R1 / RFU, ZRANB3 / Fold change vs veh, ZRANB3 / RFU, CUL4A / Fold change vs veh, CUL4A / RFU, CCNY / Fold change vs veh, CCNY / RFU, UFL1 / Fold change vs veh, UFL1 / RFU, COG3 / Fold change vs veh, COG3 / RFU, DIAPH2 / Fold change vs veh, DIAPH2 / RFU, SKA2 / Fold change vs veh, SKA2 / RFU, AFF3 / Fold change vs veh, AFF3 / RFU, LMF1 / Fold change vs veh, LMF1 / RFU, IPO11 / Fold change vs veh, IPO11 / RFU, DFFB / Fold change vs veh, DFFB / RFU, FOXP1 / Fold change vs veh, FOXP1 / RFU, CARD8 / Fold change vs veh, CARD8 / RFU, STRN3 / Fold change vs veh, STRN3 / RFU, ADK / Fold change vs veh, ADK / RFU, RASSF2 / Fold change vs veh, RASSF2 / RFU, WIPF1 / Fold change vs veh, WIPF1 / RFU, LARP1B / Fold change vs veh, LARP1B / RFU, RASA1 / Fold change vs veh, RASA1 / RFU, RB1 / Fold change vs veh, RB1 / RFU, PPFIA1 / Fold change vs veh, PPFIA1 / RFU, MAT2A / Fold change vs veh, MAT2A / RFU, CCT5 / Fold change vs veh, CCT5 / RFU, WDR92 / Fold change vs veh, WDR92 / RFU, CUX1 / Fold change vs veh, CUX1 / RFU, TTC7A / Fold change vs veh, TTC7A / RFU, TMEM135 / Fold change vs veh, TMEM135 / RFU, DEPTOR / Fold change vs veh, DEPTOR / RFU, CPM / Fold change vs veh, CPM / RFU, DNAJB6 / Fold change vs veh, DNAJB6 / RFU, CACNA2D3 / Fold change vs veh, CACNA2D3 / RFU, DTX4 / Fold change vs veh, DTX4 / RFU, TFCP2 / Fold change vs veh, TFCP2 / RFU, GMCL1 /// GMCL1P1 / Fold change vs veh, GMCL1 /// GMCL1P1 / RFU, AEBP2 / Fold change vs veh, AEBP2 / RFU, SNHG1 /// SNORD22 /// SNORD25 /// SNORD26 /// SNORD27 /// SNORD28 /// SNORD29 /// SNORD31 / Fold change vs veh, SNHG1 /// SNORD22 /// SNORD25 /// SNORD26 /// SNORD27 /// SNORD28 /// SNORD29 /// SNORD31 / Fold change (Aza/veh), C12orf56 (ProbeSet 11735607_a_at) / Fold change (ACY-1035/veh), C12orf56 (ProbeSet 11735607_a_at) / Fold change (Aza/veh), FGFR1OP (ProbeSet 11751329_s_at) / Fold change (ACY-1035/veh), FGFR1OP (ProbeSet 11751329_s_at) / Fold change (Aza/veh), VPS36 (ProbeSet 11739960_a_at) / Fold change (ACY-1035/veh), VPS36 (ProbeSet 11739960_a_at) / RFU SYPL1 (11715823_x_at) / Fold change /veh SYPL1 (11715823_x_at) / RFU IGFBP7 (11715501_s_at) / Fold change /veh IGFBP7 (11715501_s_at) / RFU REEP3 (11722064_at) / Fold change /veh REEP3 (11722064_at) / RFU IGLL1 (11728026_x_at) / Fold change /veh IGLL1 (11728026_x_at): dose or concentration left out as unconfirmed
# Settings: MV-4-11 cells, 48 hours
compound,measurement,value
Nc1ncn([C@@H]2O[C@H](CO)[C@@H](O)[C@H]2O)c(=O)n1 [azacitidine],Fold change /veh OLFML3 (11715873_a_at),0.98
